Like-named read-outs stand apart in the source and are kept apart here. No end group written: not given here.

For one experiment, the target named is HLA-A*3002 (Homo sapiens, UniProt P04439, D101N/D140H/D185E/E176R/F33S/G80R/H175R/K168Q/Q94H/R138E/R41S/V100E). In words: biochemical. Type of experiment: binding.
A further experiment concerns the target HLA-A*2301 (Homo sapiens, UniProt P04439, D101N/D140Y/D185E/E176V/E190D/F33S/G103R/G107R/H175R/I119L/I121M/I306V/K168Q/K335N/L105A/L300P/N151K/N90K/P307H/Q86E/Q94H/R106L/R138H/R89G/T104I/T345S/V100E/W191G/Y123F). The experiment in a line: biochemical. The experiment is classed as binding.
A further experiment deals with HLA-A*2902 (Homo sapiens, UniProt P04439, A270S/D101N/D185E/E176V/E277Q/E87Q/F33T/G231S/H175R/I121M/I218V/I322F/K168Q/L300P/L318F/M331R/P208A/P217A/Q86L/T323A/T345S/V100A/V358M). In words: MHC molecular binding / Capture assay, IC50: A*2902.
The target of the next experiment is HLA-B*1801 (Homo sapiens, UniProt P01889, A329T/A93T/A95T/C349S/D201E/D54G/D98Y/E176V/E187T/E204Q/E69T/K202T/Q94N/R155S/R180L/S121R/V306I/Y140S/Y195H/Y33H/Y91S). In words: biochemical. The experiment is classed as binding.
The next experiment has as its target HLA-B*4002 (Homo sapiens, UniProt P01889, A65T/A93T/A95T/D138N/D201E/D98Y/E176V/E204Q/E69K/K202T/N87E/Q56L/Q94N/R180L/S48T/Y33H/Y91S). The experiment in a line: biochemical. Type of experiment: binding.

Sequence of HLA-A*3002 (P04439 whole entry, looked up, the tested form may be a part, stated change not applied): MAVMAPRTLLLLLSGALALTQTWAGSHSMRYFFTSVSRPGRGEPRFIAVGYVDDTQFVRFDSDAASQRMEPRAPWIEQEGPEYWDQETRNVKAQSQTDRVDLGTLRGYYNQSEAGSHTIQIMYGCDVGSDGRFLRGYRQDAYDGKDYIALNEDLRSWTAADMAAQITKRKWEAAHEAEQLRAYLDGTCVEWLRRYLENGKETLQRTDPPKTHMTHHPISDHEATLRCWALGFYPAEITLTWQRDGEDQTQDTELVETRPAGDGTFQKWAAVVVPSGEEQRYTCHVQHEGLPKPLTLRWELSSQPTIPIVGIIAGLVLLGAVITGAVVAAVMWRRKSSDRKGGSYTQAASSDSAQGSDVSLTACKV

As for VYQFAFKDLCI, the IC50 came out at 3.48 µM on HLA-A*3002 (A*3002 binding affinity (IC50)), 1.9 nM at HLA-A*2301 and 49.3 µM at HLA-A*2902 (A*2902 binding affinity (IC50)).
On the same counts, the results for MYGPGPGGSVF are 32 µM, 5.4 nM and 48.4 µM.
Take TYGPGPGSLF: the IC50 on HLA-A*2301 is 8.7 nM; on HLA-A*2902 (A*2902 binding affinity (IC50)), 7.23 µM.
With KYGPGPGTTTL, the results for the IC50 on HLA-A*3002 (A*3002 binding affinity (IC50)), on HLA-A*2301 and on HLA-A*2902 (A*2902 binding affinity (IC50)) were 7.06 µM, 130 nM and 9.18 µM, respectively.
Turning to VYKFLFTDLRI, the IC50 at HLA-A*3002 (A*3002 binding affinity (IC50)) was found to be 1.87 µM; against HLA-A*2301, 14 nM; on HLA-A*2902 (A*2902 binding affinity (IC50)) it was 30.2 µM.
On to MYVGDLCGSVF, for which the figures for the half-inhibitory concentration (IC50) on HLA-A*3002 (A*3002 binding affinity (IC50)), against HLA-A*2301 and on HLA-A*2902 (A*2902 binding affinity (IC50)) were 1.46 µM, 0.91 nM and 0.612 µM, respectively.
MYVGGPGPGVF: the IC50 came out at 85 nM on HLA-A*2301 and 0.089 µM at HLA-A*2902 (Binding affinity to A*2902 (expressed as an IC50)).
Consider IYPKGPGPGF, for which the IC50 on HLA-A*3002 (A*3002 binding affinity (IC50)) came to 61.3 µM; at HLA-A*2301, 4.9 nM; at HLA-A*2902 (A*2902 binding affinity (IC50)) it was 53.6 µM.
In the case of VYADLRIVY, the IC50 against HLA-A*3002 stood at 0.0083 µM; on HLA-A*2301 it was 122 nM; on HLA-A*2902, 0.0082 µM.
With MYVGDGPGPGF, the IC50 stood at 39.6 µM on HLA-A*3002 (A*3002 binding affinity (IC50)), 11 nM at HLA-A*2301 and 8.66 µM at HLA-A*2902 (A*2902 binding affinity (IC50)).
Regarding VFLVFSNVL, the IC50 at HLA-A*3002 (A*3002 binding affinity (IC50)) was determined as 37.7 µM; against HLA-A*2301 it was 4.9 nM; on HLA-A*2902 (A*2902 binding affinity (IC50)) it was 33.7 µM.
Taken in the same sequence, the figures for LYNTEKGRHPF were above 30 µM, 1950 nM and above 50 µM.
As for FPFKYAKAF, on HLA-B*1801 (B*1801), half-maximal inhibition (IC50) required 86 nM.
Still for that read-out and setting: under `C[C@H](NC(=O)[C@H](C)NC(=O)[C@H](Cc1ccc(O)cc1)NC(=O)[C@H](CCCCN)NC(=O)[C@H](Cc1ccccc1)NC(=O)[C@@H]1CCCN1C(=O)[C@@H](N)Cc1ccccc1)C(=O)N[C@@H](C)C(=O)N[C@@H](Cc1ccccc1)C(=O)O` stands 16 nM.
Regarding `CC(C)C[C@H](NC(=O)[C@@H](N)CO)C(=O)N[C@@H](Cc1ccccc1)C(=O)N[C@H](C(=O)N[C@@H](CO)C(=O)N[C@@H](CC(N)=O)C(=O)N[C@@H](Cc1c[nH]cn1)C(=O)N[C@@H](C)C(=O)N[C@@H](Cc1ccc(O)cc1)C(=O)O)C(C)C`, the IC50 against HLA-A*3002 came to 0.0011 µM; against HLA-A*2301, 30300 nM.
For the compound QYPPLERLTL, the IC50 on HLA-A*3002 is above 9.65 µM; on HLA-A*2301 it was 22 nM; at HLA-A*2902, above 11.5 µM.
Regarding LFLSTLSF, the IC50 at HLA-A*3002 (A*3002 binding affinity (IC50)) is above 75 µM; against HLA-A*2301, 160 nM.
With AYIGPGPGF, the IC50 on HLA-A*3002 (A*3002 binding affinity (IC50)) was determined as 5.73 µM; on HLA-A*2301 it was 12 nM; on HLA-A*2902 (A*2902 binding affinity (IC50)), 15.9 µM.
With TYGIIVPVL, the figures for the IC50 at HLA-A*3002 (A*3002 binding affinity (IC50)), against HLA-A*2301 and on HLA-A*2902 (A*2902 binding affinity (IC50)) were 1.52 µM, 20 nM and 30.1 µM, respectively.
FYSKVSEF: the IC50 stood at 66.7 µM at HLA-A*3002 (A*3002 binding affinity (IC50)) and 18 nM on HLA-A*2301.
For the compound TYLPTNASL, the IC50 at HLA-A*3002 (A*3002 binding affinity (IC50)) came to 8.24 µM; on HLA-A*2301, 7.8 nM; at HLA-A*2902 (A*2902 binding affinity (IC50)), 106 µM.
TYSVSFDSLF: the IC50 at HLA-A*3002 (A*3002 binding affinity (IC50)) was determined as 5.22 µM; against HLA-A*2301, 12 nM.
In the case of RYHNIRGRW, the IC50 on HLA-A*3002 was 0.015 µM; at HLA-A*2301 it was 14 nM; on HLA-A*2902 it was 123 µM.
For RVLPPNWKY, the IC50 against HLA-A*3002 is 0.003 µM; on HLA-A*2301, above 49000 nM.
Regarding KWSKSSIVGF, the IC50 is 30.4 µM at HLA-A*3002, 84 nM on HLA-A*2301 and above 56.2 µM at HLA-A*2902.
As for TYLPTGPGPGF, the IC50 at HLA-A*3002 (A*3002 binding affinity (IC50)) stood at 33 µM; on HLA-A*2301 it was 8.6 nM; at HLA-A*2902 (A*2902 binding affinity (IC50)), 56.6 µM.
LFTDLRIVF: the IC50 amounted to 2.65 µM against HLA-A*3002, 2.6 nM on HLA-A*2301 and 0.164 µM at HLA-A*2902.
VYDFAFRDLCI: the IC50 on HLA-A*3002 (A*3002 binding affinity (IC50)) stood at 35.7 µM; at HLA-A*2301, 8.9 nM; at HLA-A*2902 (A*2902 binding affinity (IC50)), 62.2 µM.
For the compound TYLPGPGPGSF, the IC50 came out at 2.2 nM on HLA-A*2301 and 56.2 µM on HLA-A*2902 (A*2902 binding affinity (IC50)).
Regarding VYHTQGYFPDF, the results for the IC50 against HLA-A*3002 and on HLA-A*2301 were above 22.6 µM and 68 nM, respectively.
As to IYSKKRQEIF, the figures for the IC50 against HLA-A*3002, against HLA-A*2301 and on HLA-A*2902 were 21 µM, 360 nM and above 132 µM, respectively.
Taken in the same sequence, the figures for `CC(C)C[C@H](NC(=O)[C@H](CC(C)C)NC(=O)[C@H](C)NC(=O)[C@H](CC(C)C)NC(=O)[C@H](CC(C)C)NC(=O)[C@H](CC(C)C)NC(=O)CNC(=O)[C@H](Cc1c[nH]c2ccccc12)NC(=O)[C@@H](N)CCCNC(=N)N)C(=O)O` were 0.3 µM, 100 nM and 61.3 µM.
With QLPPLERLTF, the results for the IC50 on HLA-A*3002, against HLA-A*2301 and at HLA-A*2902 were above 36.6 µM, 338 nM and above 37.3 µM, respectively.
FPFKYKAAF gave an IC50 against HLA-B*1801 (B*1801) of 155 nM.
As for KYQGPGPGTTL, the concentration for half-maximal inhibition (IC50) on HLA-A*3002 (A*3002 binding affinity (IC50)) was 6 µM; against HLA-A*2301, 438 nM; on HLA-A*2902 (A*2902 binding affinity (IC50)) it was 74.5 µM.
Regarding RYLSKISEY, the IC50 at HLA-A*3002 worked out at 0.0011 µM; against HLA-A*2301, 98 nM; on HLA-A*2902 it was 4.25 µM.
Regarding TYSGPGPGLF, the figures for the IC50 on HLA-A*2301 and at HLA-A*2902 (A*2902 binding affinity (IC50)) were 92 nM and 7.73 µM, respectively.
On HLA-B*1801 (B*1801), FPFDYAAAF registered an IC50 of 141 nM.
For YYGKQENW, the 50% inhibitory concentration (IC50) at HLA-A*3002 (A*3002 binding affinity (IC50)) was above 30 µM; on HLA-A*2301, 951 nM; at HLA-A*2902 (A*2902 binding affinity (IC50)) it was above 50 µM.
In the case of AYSSWMYSY, the IC50 at HLA-A*3002 (Binding affinity to A*3002 (expressed as an IC50)) was determined as 0.0049 µM; against HLA-A*2301, 21 nM.
On to YFILVNLL, for which the IC50 was determined as 30 µM at HLA-A*3002 (A*3002 binding affinity (IC50)), 82 nM on HLA-A*2301 and 4.05 µM on HLA-A*2902 (A*2902 binding affinity (IC50)).
On to QYNKPLCDLLI, for which the IC50 at HLA-A*3002 (A*3002 binding affinity (IC50)) is 6.68 µM; on HLA-A*2301, 36 nM; on HLA-A*2902 (A*2902 binding affinity (IC50)) it was above 167 µM.
As for TYLGPGPGLSF, the IC50 came out at 26.9 µM at HLA-A*3002 (A*3002 binding affinity (IC50)), 0.65 nM against HLA-A*2301 and 0.6 µM on HLA-A*2902 (A*2902 binding affinity (IC50)).
Taken in the same sequence, the figures for IYYFDGNSW were 3.03 µM, 6.1 nM and 3.1 µM.
Taken in the same sequence, the figures for VYDFVFADLRI were 7.58 µM, 8 nM and 8.9 µM.
Turning to LFLNTLSF, the IC50 on HLA-A*3002 (A*3002 binding affinity (IC50)) worked out at 118 µM; against HLA-A*2301, 104 nM; on HLA-A*2902 (A*2902 binding affinity (IC50)), 1.01 µM.
Regarding KTKDIVNGL, the IC50 on HLA-A*3002 (A*3002 binding affinity (IC50)) was 0.164 µM; against HLA-A*2301 it was above 49000 nM.
As to AENLWVSVY, the 50% inhibitory concentration (IC50) on HLA-B*4002 was 1350 nM; at HLA-B*1801, 232 nM.
The compound FDFKYAAAF displayed an IC50 at HLA-B*1801 (B*1801) of 187 nM.
Take IYPGPGPGIF: the figures for the IC50 on HLA-A*3002 (A*3002 binding affinity (IC50)), on HLA-A*2301 and at HLA-A*2902 (A*2902 binding affinity (IC50)) were 18 µM, 12 nM and 18.7 µM, respectively.
Consider TYGPGPGSLSF, for which the IC50 on HLA-A*3002 (A*3002 binding affinity (IC50)) was 47.2 µM; on HLA-A*2301 it was 1.7 nM; at HLA-A*2902 (A*2902 binding affinity (IC50)), 9.85 µM.
With FAFKYAAAF, the IC50 against HLA-B*1801 (B*1801) was found to be 95 nM.
With TYSVGPGPGF, the figures for the IC50 at HLA-A*3002 (A*3002 binding affinity (IC50)), against HLA-A*2301 and on HLA-A*2902 (A*2902 binding affinity (IC50)) were 55.2 µM, 340 nM and 121 µM, respectively.
For the compound FQFKYAAAF, half-maximal inhibition at HLA-B*1801 (B*1801) (IC50) was put at 22 nM.
For VFNVVNSSI, the values for the IC50 against HLA-A*2301 and at HLA-A*2902 (A*2902 binding affinity (IC50)) were 35 nM and 24 µM, respectively.

A word on the IC50: it is the concentration that inhibits the measured activity by half. Lower therefore signals greater potency in that assay.

For the origin of these results see patent US20060079453A1, “Hla binding peptides and their uses” (priority 2002, published 2006).
